Source: patent US20240360091A1, “GLUN2B-SUBUNIT SELECTIVE ANTAGONISTS OF THE N-METHYL-D-ASPARTATE RECEPTORS WITH ENHANCED POTENCY AT ACIDIC PH” (Emory University, priority 2021, published 2024)
Like-named read-outs stand apart in the source and are kept apart here.

Assays:
clinical = conditions: human, plasma, intravenous
Procedure: Subjects checked into the clinic on Day 1 and remained in the clinic through the 48 h post-dose blood draw on Day 7, after which time they were discharged. Subjects returned to the clinic for a follow-up visit at Day 9. […] Dose levels included 25, 50 and 100 mg.
Collection tubes containing K2EDTA were be used to collect 5 mL of whole blood sample at each time point. Immediately after collection, tubes were inverted to mix the anticoagulant with the blood sample. Tubes were then centrifuged at a speed of approximately 3000 g force for 10 minutes at 4° C. Within 5 minutes of centrifugation the plasma fraction was transferred into two equal aliquots (1.25 mL each) into 2 mL cryovials and then frozen and stored at −70° C.
The method was adapted and used to measure plasma samples by TMD Pharmaceutical Research (Newark, DE). […] Analytes were detected by multiple reaction monitoring using an MDS Sciex API 4000 mass spectrometer (AB Sciex, Framingham, MA) in positive mode.
The pharmacokinetic analysis was performed based on the non-compartmental analysis approach (M. Garibaldi and D Perrier, Pharmacokinetics 2nd Edition, Chapter 11, Marcel Dekker Inc., New York, 1982) using MS Excel®.

SERT = SERT (Homo sapiens (Human), UniProt P31645); experiment: Off-target radioligand binding displacement (NIMH PDSP); conditions: pH 7.4
Procedure: (§1) Briefly, the compound was submitted to the NIMH PDSP and screened at a single concentration (10 μM) of test article under equilibrium conditions for ability to displace specific radioligands from binding to their targets expressed in mammalian cell membranes in vitro. Each receptor target was assayed in quadruplicate and the % inhibition of radioligand binding at each target determined at pH 7.4. […]

[1] = Plasma protein binding, rapid equilibrium dialysis, dog; assay type: in vitro ADME; conditions: n=1
Procedure: Plasma protein binding was performed with a rapid equilibrium dialysis (RED) device containing dialysis membrane with a molecular weight cut-off of 8,000 Daltons according to the manufacturer's instructions (ThermoFisher, USA). The plasma samples (pH 7.4) and the test compound solution (1 or 5 μM) or reference standards (Warfarin and Propranolol, 10 μM) were combined (DMSO final conc 0.1%). 300 μL of this spiked plasma sample was added to the sample chamber, and 500 μL of blank PBS buffer (pH 7.4) was added into the buffer chamber. The RED device was sealed with adhesive film and then incubated at 37° C. with shaking at 300 rpm for 4 h. Following incubation, an aliquot (50 μL) was removed from each well (spiked plasma and buffer side) and diluted with equal volume of the corresponding opposite matrix (blank buffer or blank plasma) to nullify the matrix effect, and then extracted for analysis by LC-MS/MS. The amount of free material was determined by:
% Free=(LC-MS/MS peak area of test compound in buffer side/LC-MS/MS peak area of test compound in plasma side)×100%

CYP3A4 = CYP3A4 (Homo sapiens (Human), UniProt P08684); experiment: Cytochrome P450 inhibition (Vivid CYP blue screening kit), CYP3A4; assay type: in vitro ADME; conditions: 1 μM
Procedure: Inhibition of CYP2D6 and CYP3A4 was accomplished using recombinant human isoforms and a Vivid CYP blue screening kit (Invitrogen, USA) by incubating 2-fold serial dilutions (9 samples) of the test compound with kit reagents and reaction buffer according to the manufacturer's methods in a 96-well plate. The plate was then incubated at room temperature for 30 min before fluorescence was measured with a plate reader. For these studies, reference standards ketoconazole (CYP3A4) and quinidine (CYP2D6) were used as controls.

GluN2A = GluN2A (Homo sapiens (Human), UniProt Q12879); experiment: Two electrode voltage-clamp recordings, single concentration, GluN2A; assay type: cell-based; conditions: pH 6.9
5-HT1B = 5-HT1B (Homo sapiens (Human), UniProt P28222); experiment: Off-target radioligand binding displacement (NIMH PDSP); conditions: pH 7.4
Procedure: as §1

human GluN1/GluN2B = human GluN1/GluN2B (Homo sapiens (Human), UniProt Q05586+Q13224); experiment: Two electrode voltage-clamp recordings from Xenopus laevis oocytes, GluN2B potency and pH dependence; assay type: cell-based
Procedure: Two Electrode Voltage-Clamp Recordings from Xenopus laevis Oocytes
Stage V-VI Xenopus laevis unfertilized oocytes were purchased from Ecocyte (Austin, Texas) and injected with 5 ng of GluN1 and 10 ng of GluN2B cRNAs. The cDNAs for human GluN1 and GluN2B, encoding NCBI reference sequences NM_007327.3 and NM_000834.3, respectively, were linearized and cRNAs made as previously described (Traynelis et al., J Neurosci, 1998, 18(16):6163-75). After injection, the oocytes were incubated in Barth's culture solution (88 mM NaCl, 1 mM KCl, 2.4 mM NaHCO3, 10 mM HEPES, 0.82 mM MgSO4, 0.33 mM Ca(NO3)2, 0.41 mM CaCl2), 10 U/mL PenStrep, and 0.1 mg/mL gentamycin, pH 7.4) at 18° C. Two electrode voltage-clamp (TEVC) recordings were made at 22-23° C., 2-7 days after the injection, using Warner OC725C amplifiers (VHOLD=−40 mV). Briefly, the oocytes were perfused in a recording solution (90 mM NaCl, 1 mM KCl, 10 mM HEPES, 0.01 mM EDTA, and 0.5 mM BaCl2) adjusted to either pH 7.6 or 6.9 by addition of NaOH or HCl, respectively (pH 6.9 solutions were prepared by addition of HCl to pH 7.6 solutions to maintain an equal concentration of Na^+ ions in both solutions). Concentration-response curves of the compounds were obtained by application of increasing concentrations of each individual compound until steady state conditions were obtained, in the presence of saturating agonist concentrations (i.e., 100 μM glutamate and 30 μM glycine). In general, oocyte recordings were made from 4-10 oocytes per experiment (i.e., oocyte injection cycle) from ≥two experiments. The concentration-response relationship for each oocyte was fit by equation (1),
Percent Response=(100−minimum)/(1+([concentration]/IC50)^nH)+minimum (1)
where minimum is the residual response in saturating concentration of each individual compound (constrained to be ≥0), and IC50 is the concentration of compound that causes half-maximal inhibition, and nH is the Hill slope.

Chain of human GluN1/GluN2B (Q13224 27-1484, other chains not shown): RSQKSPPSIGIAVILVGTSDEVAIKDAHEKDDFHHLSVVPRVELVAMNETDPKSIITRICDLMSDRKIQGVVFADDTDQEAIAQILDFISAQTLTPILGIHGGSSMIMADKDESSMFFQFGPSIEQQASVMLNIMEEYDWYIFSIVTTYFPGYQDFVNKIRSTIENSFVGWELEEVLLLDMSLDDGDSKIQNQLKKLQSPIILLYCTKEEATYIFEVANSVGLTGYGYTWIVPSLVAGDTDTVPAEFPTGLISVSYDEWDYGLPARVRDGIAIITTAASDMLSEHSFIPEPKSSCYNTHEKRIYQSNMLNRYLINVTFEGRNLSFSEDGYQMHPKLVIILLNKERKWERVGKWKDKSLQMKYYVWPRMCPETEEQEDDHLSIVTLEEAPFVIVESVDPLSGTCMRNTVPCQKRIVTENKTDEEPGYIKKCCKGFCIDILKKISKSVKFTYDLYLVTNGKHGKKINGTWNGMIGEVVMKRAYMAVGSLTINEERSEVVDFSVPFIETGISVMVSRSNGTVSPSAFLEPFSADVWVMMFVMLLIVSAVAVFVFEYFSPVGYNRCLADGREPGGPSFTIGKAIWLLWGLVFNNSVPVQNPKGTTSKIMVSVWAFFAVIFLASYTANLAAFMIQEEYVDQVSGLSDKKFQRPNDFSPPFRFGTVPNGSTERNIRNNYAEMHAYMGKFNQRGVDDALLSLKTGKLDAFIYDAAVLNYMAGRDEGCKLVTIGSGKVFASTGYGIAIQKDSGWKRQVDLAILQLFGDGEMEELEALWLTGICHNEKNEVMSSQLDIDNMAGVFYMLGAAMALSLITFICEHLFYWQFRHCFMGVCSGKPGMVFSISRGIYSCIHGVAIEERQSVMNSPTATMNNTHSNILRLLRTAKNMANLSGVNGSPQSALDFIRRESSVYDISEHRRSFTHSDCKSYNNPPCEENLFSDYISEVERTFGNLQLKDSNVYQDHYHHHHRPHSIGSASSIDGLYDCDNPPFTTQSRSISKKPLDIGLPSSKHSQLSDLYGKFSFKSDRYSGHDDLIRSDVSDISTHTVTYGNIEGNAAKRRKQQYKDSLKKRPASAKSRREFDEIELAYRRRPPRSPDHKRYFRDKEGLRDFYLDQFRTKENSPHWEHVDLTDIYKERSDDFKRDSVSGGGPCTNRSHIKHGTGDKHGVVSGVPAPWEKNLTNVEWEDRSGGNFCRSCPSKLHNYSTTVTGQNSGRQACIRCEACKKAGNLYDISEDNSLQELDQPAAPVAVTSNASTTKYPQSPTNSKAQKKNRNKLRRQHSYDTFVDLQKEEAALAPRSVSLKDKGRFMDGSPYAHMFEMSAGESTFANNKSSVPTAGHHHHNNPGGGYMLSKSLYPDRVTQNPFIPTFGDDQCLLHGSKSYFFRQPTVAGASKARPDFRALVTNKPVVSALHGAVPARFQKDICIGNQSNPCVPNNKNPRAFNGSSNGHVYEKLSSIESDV
Chain of GluN2A (Q12879 23-1464, other chains not shown): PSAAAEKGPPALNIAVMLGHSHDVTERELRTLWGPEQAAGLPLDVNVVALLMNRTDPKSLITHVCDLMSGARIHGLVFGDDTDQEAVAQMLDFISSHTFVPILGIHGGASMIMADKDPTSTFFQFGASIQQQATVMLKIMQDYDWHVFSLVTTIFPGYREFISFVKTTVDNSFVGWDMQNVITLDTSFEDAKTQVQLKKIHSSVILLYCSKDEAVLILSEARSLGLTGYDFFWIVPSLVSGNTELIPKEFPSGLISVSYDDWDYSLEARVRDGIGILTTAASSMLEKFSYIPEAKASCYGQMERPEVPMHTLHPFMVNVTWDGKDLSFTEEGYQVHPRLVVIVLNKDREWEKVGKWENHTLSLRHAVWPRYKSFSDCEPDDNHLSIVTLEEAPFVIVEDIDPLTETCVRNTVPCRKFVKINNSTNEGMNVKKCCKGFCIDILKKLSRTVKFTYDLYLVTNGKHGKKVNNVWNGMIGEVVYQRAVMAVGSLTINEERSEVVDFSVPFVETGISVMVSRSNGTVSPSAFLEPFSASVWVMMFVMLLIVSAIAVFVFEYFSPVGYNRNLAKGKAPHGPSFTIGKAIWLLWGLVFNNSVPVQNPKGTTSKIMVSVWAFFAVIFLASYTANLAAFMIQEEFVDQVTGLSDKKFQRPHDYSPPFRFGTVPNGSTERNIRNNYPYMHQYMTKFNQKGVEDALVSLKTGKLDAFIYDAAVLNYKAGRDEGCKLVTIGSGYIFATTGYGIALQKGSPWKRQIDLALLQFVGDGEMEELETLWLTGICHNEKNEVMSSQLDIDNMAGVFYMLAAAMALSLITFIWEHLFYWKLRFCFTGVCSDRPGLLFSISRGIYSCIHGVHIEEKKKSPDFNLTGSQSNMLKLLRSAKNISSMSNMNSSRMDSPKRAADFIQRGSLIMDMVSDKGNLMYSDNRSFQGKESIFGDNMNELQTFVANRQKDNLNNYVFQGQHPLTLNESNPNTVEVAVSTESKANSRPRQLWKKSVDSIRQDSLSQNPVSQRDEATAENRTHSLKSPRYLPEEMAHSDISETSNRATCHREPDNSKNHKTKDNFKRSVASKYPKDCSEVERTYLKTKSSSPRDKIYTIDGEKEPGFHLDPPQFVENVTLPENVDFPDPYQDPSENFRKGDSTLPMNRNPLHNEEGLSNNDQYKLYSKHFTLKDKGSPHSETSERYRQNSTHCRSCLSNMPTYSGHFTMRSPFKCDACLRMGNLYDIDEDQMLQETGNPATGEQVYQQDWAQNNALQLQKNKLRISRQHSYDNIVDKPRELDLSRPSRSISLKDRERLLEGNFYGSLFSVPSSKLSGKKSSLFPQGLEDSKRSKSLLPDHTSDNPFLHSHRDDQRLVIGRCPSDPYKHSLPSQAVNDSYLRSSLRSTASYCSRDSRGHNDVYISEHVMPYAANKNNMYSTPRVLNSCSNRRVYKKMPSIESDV
Chain of CYP3A4 (P08684 whole entry, canonical isoform): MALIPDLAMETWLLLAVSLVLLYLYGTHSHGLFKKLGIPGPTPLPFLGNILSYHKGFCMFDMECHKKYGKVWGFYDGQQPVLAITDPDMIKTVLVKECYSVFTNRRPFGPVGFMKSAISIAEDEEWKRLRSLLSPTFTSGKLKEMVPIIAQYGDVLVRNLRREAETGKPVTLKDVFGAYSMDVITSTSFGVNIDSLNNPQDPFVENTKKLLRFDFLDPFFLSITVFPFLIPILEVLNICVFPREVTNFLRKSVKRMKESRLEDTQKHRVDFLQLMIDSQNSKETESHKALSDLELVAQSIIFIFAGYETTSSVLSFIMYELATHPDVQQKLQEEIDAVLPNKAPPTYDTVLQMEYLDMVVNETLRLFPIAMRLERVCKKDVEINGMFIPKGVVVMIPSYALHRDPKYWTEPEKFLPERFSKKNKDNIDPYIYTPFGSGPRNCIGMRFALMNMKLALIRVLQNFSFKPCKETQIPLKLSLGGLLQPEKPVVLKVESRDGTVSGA
Chain of SERT (P31645 whole entry, species assumed): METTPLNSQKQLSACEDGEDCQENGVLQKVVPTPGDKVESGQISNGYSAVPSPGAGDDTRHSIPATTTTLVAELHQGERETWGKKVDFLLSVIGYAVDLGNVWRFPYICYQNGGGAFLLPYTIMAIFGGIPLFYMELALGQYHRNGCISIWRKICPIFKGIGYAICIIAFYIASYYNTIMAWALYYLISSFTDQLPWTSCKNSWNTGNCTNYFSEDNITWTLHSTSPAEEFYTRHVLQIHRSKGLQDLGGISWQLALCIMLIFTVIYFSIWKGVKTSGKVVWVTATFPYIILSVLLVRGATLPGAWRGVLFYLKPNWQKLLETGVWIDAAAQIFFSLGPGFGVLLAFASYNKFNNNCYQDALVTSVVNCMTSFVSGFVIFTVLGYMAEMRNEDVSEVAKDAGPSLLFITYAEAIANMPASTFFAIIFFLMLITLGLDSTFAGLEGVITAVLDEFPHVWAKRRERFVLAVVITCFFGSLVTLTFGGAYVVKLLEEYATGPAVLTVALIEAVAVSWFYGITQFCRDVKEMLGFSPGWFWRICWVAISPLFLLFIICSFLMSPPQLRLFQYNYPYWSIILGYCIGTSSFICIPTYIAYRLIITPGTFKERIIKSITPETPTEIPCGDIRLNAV
Chain of 5-HT1B (P28222 whole entry, species assumed): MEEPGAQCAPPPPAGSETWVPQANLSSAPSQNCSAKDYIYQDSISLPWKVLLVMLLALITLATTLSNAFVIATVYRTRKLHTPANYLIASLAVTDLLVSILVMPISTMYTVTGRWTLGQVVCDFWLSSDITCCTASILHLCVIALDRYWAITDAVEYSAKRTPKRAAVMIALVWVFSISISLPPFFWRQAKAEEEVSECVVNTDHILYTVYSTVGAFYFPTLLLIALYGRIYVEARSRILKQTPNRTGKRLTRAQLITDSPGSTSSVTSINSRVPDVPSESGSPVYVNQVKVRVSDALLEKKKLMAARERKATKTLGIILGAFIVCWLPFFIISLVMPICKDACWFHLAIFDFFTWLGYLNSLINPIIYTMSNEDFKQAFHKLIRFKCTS

Cmax (clinical; 25 mg): 213 ± 26 ng/mL | Tmax (clinical; 25 mg): 0.5 h | half-life (clinical; 25 mg): 15.4 to 36.2 h | Cmax (clinical; 50 mg): 394 ± 72 ng/mL | Tmax (clinical; 50 mg): 1 ± 0.4 h | half-life (clinical; 50 mg): 15.5 to 25.6 h | half-life (clinical; 100 mg): 12.5 to 34 h | Ki (SERT): 0.135 µM | bound to dog plasma proteins [1]: 98.2% | inhibition of CYP3A4 (CYP3A4): did not inhibit | off-target inhibition against GluN2A (GluN2A; 3 μM): no noticeable off-target inhibition | GluN2A % residual (GluN2A; % current remaining after 3 μM compound): 99.0 (pH 6.9) % | Ki (5-HT1B): > 10 µM | IC50 (human GluN1/GluN2B; pH 6.9, read-out: IC50 (μM) pH 6.9): 0.023 µM | IC50 (human GluN1/GluN2B; pH 6.9, read-out: IC50 value at pH 6.9): 0.023 µM | IC50 (human GluN1/GluN2B; pH 7.6, read-out: IC50 (μM) pH 7.6): 0.142 µM | IC50 (human GluN1/GluN2B; pH 7.6, read-out: IC50 value at pH 7.6): 0.142 µM | pH Boost (human GluN1/GluN2B; ratio of IC50 at pH 7.6 to IC50 at pH 6.9): 6.2
Structure (SMILES): O=C1CCc2cc(OC[C@H](O)CN3CCN(c4ccc(C(F)(F)F)cc4)CC3)ccc2N1 [NP10679]
